Type in all cases: cell-based
For experiment [1], the system named is GT1a replicon encoding NS5A mutation Y93H. Put plainly: Transient replication assay, GT1a replicon with NS5A mutation Y93H. Conditions: Hepatitis C virus, read-out: EC50 1a Y93H. (In general: Replicon systems follow genome replication, usually without infectious particles.)
In experiment [2] the test system is GT1a replicon encoding NS5A mutation M28T. Put plainly: Transient replication assay, GT1a replicon with NS5A mutation M28T. Conditions: Hepatitis C virus, read-out: EC50 1a M28T.
Another experiment deals with HCV GT 1a replicon. As to the kind of experiment: HCV replicon assay, stable GT 1a replicon (Renilla luciferase). As to conditions: Hepatitis C virus, GT1A; HCV GT 1a replicon, 72 h; read-out: EC50 1a. How it is done:
The activity of compounds was determined against HCV replicons representing genotypes (GT) 1a, 1b, 2a, and 3a. To generate stable Huh-7.5-based cell lines, HCV replicons were engineered to express the Renilla luciferase reporter (hRluc) fused to the neomycin phosphotransferase (Neo) gene. GT2a and GT3a HCV replicons were based on the JFH-1 subgenomic replicon (Kato et al. 2003 Gastroenterology, 125:1808-1817), in which the NS5A gene was replaced with that of strains J6 and S52 (GT2a and G3a, respectively). The activity of compounds against GT1a replicons encoding NS5A mutations (M28T, Q30R, L31M, Y93C, and Y93H) was also determined in a transient replication assay. The parental GT1a and GT2a replicons (pH/SG-Neo(L+I) and pSG-Neo-JFH1, respectively) were licensed from Apath LLC (Saint Louis, Mo.). The parental GT 1b replicon (pFKi389lucubineo_3_3′_ET) was licensed from ReBLikon GmbH (Germany). HCV replicons were constructed by standard molecular biology techniques described below. All replicon constructs were verified by restriction enzyme digestion and DNA sequencing.
pH/SG-Neo(L+I) was modified to add the firefly luciferase reporter gene and additional adaptive mutations by replacing the pH/SG-Neo(L+I) NS3-NS5A coding region with the corresponding sequence of pH77-S, creating pH/SG-lucubineo-H77S as described (Borawski J et al. 2009, J Virol 83: 10058-10074). Subsequently, the firefly luciferase-Neo cassette was replaced with the hRluc-Neo cassette. To create a unique cloning site, the NotI restriction site in NS5B was removed using QuickChange II XL Site-Directed Mutagenesis Kit (Agilent) and the following primers: NotI KO Fwd 5′-CTCAAACTCACTCCAATAGCTGCCGCTGGCCGGCTGGAC-3′(G→T mutation removing NotI site underlined) (SEQ. ID No. 1) and NotI KO Rev 5′-GTCCAGCGGGCCAGCGGCAGCTATTGGAGTGAGTTTGAG-3′(C→A mutation removing NotI site underlined) (SEQ. ID No. 2). The resulting vector, pH/SG-lucubineo-H775-NotIKO, was sequenced to confirm the NS5B gene. The hRluc-Neo cassette was PCR amplified from pF9 cytomegalovirus (CMV) hRluc-Neo Flexi(R) (Promega) using Accuprime Super Mix II (Invitrogen) and the following primers, which introduce restriction sites: […]
The amplification product was subcloned into pCR2.1-TOPO (Invitrogen). The resulting plasmid was digested with AscI and NotI, and the excised hRluc-Neo fragment was ligated using the Promega Rapid Ligation Kit (Promega) into pH/SG-lucubineo-H775-NotIKO digested with the same enzymes.
Stable HCV replicon cell lines were grown in complete media (Dulbecco's modified Eagle medium [DMEM], 2 mM L-glutamine, 0.1 mM essential amino acids, 1 mM sodium pyruvate, 10% heat inactivated fetal bovine serum) with the addition 500 μg/ml […] (G418). Huh7-lunet cells were maintained in the same medium without the addition of G418. Cells were routinely passaged at a dilution of 1:4 two times a week. The assay medium for both luciferase reporter HCV replicon and cytotoxicity assays used phenol red-free DMEM and lacked G418. For each stable replicon assay, a sixteen point half-log dilution series of compound was stamped (0.5 ul compound per well) into three replica 384-well plates, to which cells were added directly (4000 cells/well). For the transient replication assay, Huh7-lunet cells in ice-cold phosphate buffered saline (PBS) were electroporated (BioRad electroporator; 950 uF, 270V) with 10 ug purified in vitro transcribed HCV replicon RNA, followed by resuspension in complete media and plating (8000 cells/well) into compound stamped 384-well plates. Luciferase activity of compound-treated cells was measured relative to DMSO-treated cells after 72 h incubation using RENILLA-GLO™ Luciferase Assay (Promega). Cytotoxicity (CC50) in the GT1b replicon cell line was analyzed using CELL TITER-GLO™ (Promega). […]

One may read the EC50 as the concentration at which the effect is half-maximal. Turning to `COC(=O)N[C@H](C(=O)N1[C@H](c2nc3ccc4cc(-c5ccc(-c6cnc([C@@H]7C[C@@]8(CCCOC8)CN7C(=O)[C@@H](NC(=O)OC)C7C[C@@H](C)O[C@H](C)C7)[nH]6)cc5)ccc4c3[nH]2)C[C@@H]2CCCC[C@@H]21)C(C)C` (stereo in doubt) [Compound 38], the EC50 in experiment [1] came to 0.2 nM; in experiment [2], 0.002 nM; in the experiment on HCV GT 1a replicon, 8 pM.

Regarding `COC(=O)N[C@H](C(=O)N1[C@H](c2nc3ccc4cc(-c5ccc(-c6cnc([C@@H]7C[C@@]8(CCCOC8)CN7C(=O)[C@H](NC(=O)OC)C7C[C@@H](C)O[C@H](C)C7)[nH]6)cc5)ccc4c3[nH]2)C[C@@H]2CCCC[C@@H]21)C(C)C` (stereo in doubt) [Compound 39], the EC50 is 213 nM in experiment [1], 0.4 nM in experiment [2] and 214 pM with HCV GT 1a replicon.

Consider `COC(=O)N[C@H](C(=O)N1C[C@]2(CCCOC2)C[C@H]1c1nc2ccc3cc(-c4ccc(-c5cnc([C@@H]6C[C@H]7C[C@H]7N6C(=O)[C@@H](NC(=O)OC)C(C)C)[nH]5)cc4)ccc3c2[nH]1)C(C)C` [Compound 5], for which the EC50 turned out to be 2 nM in experiment [1], 0.03 nM in experiment [2] and 8 pM in the experiment on HCV GT 1a replicon.

As for `COC(=O)N[C@H](C(=O)N1C[C@]2(CCCOC2)C[C@H]1c1nc2ccc3cc(-c4ccc5c(ccc6nc([C@@H]7C[C@H]8C[C@H]8N7C(=O)[C@@H](NC(=O)OC)C(C)C)[nH]c65)c4)ccc3c2[nH]1)C(C)C` [Compound 6], the EC50 in experiment [1] came to 0.8 nM; in experiment [2] it was 0.06 nM; in the experiment with HCV GT 1a replicon, 7 pM.

Consider `COC(=O)N[C@H](C(=O)N1CC2(CC2)C[C@H]1c1nc2ccc3cc(-c4ccc5c(ccc6nc([C@@H]7C[C@@]8(CCCOC8)CN7C(=O)[C@@H](NC(=O)OC)C(C)C)[nH]c65)c4)ccc3c2[nH]1)C(C)C` [Compound 7], for which the EC50 in experiment [1] turned out to be 1 nM; in experiment [2], 0.02 nM; with HCV GT 1a replicon it was 9 pM.

`COC(=O)N[C@H](C(=O)N1CC2(CC2)C[C@H]1c1ncc(-c2ccc(-c3ccc4c(ccc5nc([C@@H]6C[C@@]7(CCCOC7)CN6C(=O)[C@@H](NC(=O)OC)C(C)C)[nH]c54)c3)cc2)[nH]1)C(C)C` [Compound 8]: the values for the EC50 (in experiment [1]; in experiment [2]; with HCV GT 1a replicon) were 4 nM, 0.06 nM and 10 pM, respectively.

For the molecule `COC(=O)N[C@H](C(=O)N1C[C@]2(CCCOC2)C[C@H]1c1nc2ccc3cc(-c4ccc5c(ccc6nc([C@@H]7C[C@@H]8CCC[C@@H]8N7C(=O)[C@@H](NC(=O)OC)C(C)C)[nH]c65)c4)ccc3c2[nH]1)C(C)C` [Compound 9], the figures for the EC50 (in experiment [1]; in experiment [2]; in the experiment with HCV GT 1a replicon) were 2 nM, 0.03 nM and 7 pM, respectively.

For the molecule `COC(=O)N[C@H](C(=O)N1C[C@]2(CCCOC2)C[C@H]1c1nc2ccc3cc(-c4ccc(-c5cnc([C@@H]6C[C@@H]7CCC[C@@H]7N6C(=O)[C@@H](NC(=O)OC)C(C)C)[nH]5)cc4)ccc3c2[nH]1)C(C)C` [Compound 10], the 50% effective concentration (EC50) was 4 nM in experiment [1], 0.04 nM in experiment [2] and 5 pM with HCV GT 1a replicon.

Turning to `COC(=O)N[C@H](C(=O)N1C[C@]2(CCCOC2)C[C@H]1c1ncc(-c2ccc(-c3ccc4c(ccc5nc([C@@H]6C[C@@]7(CCCOC7)CN6C(=O)[C@@H](NC(=O)OC)C(C)C)[nH]c54)c3)cc2)[nH]1)C(C)C` [Compound 11], the EC50 in experiment [1] came out at 2 nM; in experiment [2], 0.02 nM; in the experiment on HCV GT 1a replicon it was 23 pM.

Turning to `COC(=O)N[C@H](C(=O)N1C[C@]2(CCCOC2)C[C@H]1c1ncc(-c2ccc3cc4cc(-c5cnc([C@@H]6C[C@@H]7CCCC[C@@H]7N6C(=O)[C@@H](NC(=O)OC)C(C)C)[nH]5)ccc4cc3c2)[nH]1)C(C)C` [Compound 13], the EC50 was 9 nM in experiment [1], 0.02 nM in experiment [2] and 36 pM in the experiment with HCV GT 1a replicon.

As for `COC(=O)N[C@H](C(=O)N1C[C@]2(CCCOC2)C[C@H]1c1ncc(-c2ccc3c(c2)COc2cc(-c4cnc([C@@H]5C[C@@H]6CCCC[C@@H]6N5C(=O)[C@@H](NC(=O)OC)C(C)C)[nH]4)ccc2-3)[nH]1)C(C)C` [Compound 15], the EC50 in experiment [1] came to 5 nM; in experiment [2], 0.01 nM; with HCV GT 1a replicon it was 8 pM.

As to `COC(=O)N[C@H](C(=O)N1C[C@]2(CCCOC2)C[C@H]1c1ncc(-c2ccc(-c3ccc4c(ccc5nc([C@@H]6C[C@@H]7CCC[C@@H]7N6C(=O)[C@@H](NC(=O)OC)C(C)C)[nH]c54)c3)cc2)[nH]1)C(C)C` [Compound 16], the EC50 in experiment [1] came to 8 nM; in experiment [2], 0.08 nM; in the experiment on HCV GT 1a replicon, 9 pM.

For `COC(=O)N[C@H](C(=O)N1C[C@]2(CCCOC2)C[C@H]1c1ncc(-c2ccc3c(ccc4cc(-c5cnc([C@@H]6C[C@@H]7CCCC[C@@H]7N6C(=O)[C@@H](NC(=O)OC)C(C)C)[nH]5)ccc43)c2)[nH]1)C(C)C` [Compound 17], the EC50 in experiment [1] was 5 nM; in experiment [2], 0.008 nM; in the experiment with HCV GT 1a replicon, 12 pM.

Take `COC(=O)N[C@H](C(=O)N1C[C@]2(CCCOC2)C[C@H]1c1ncc(-c2ccc(-c3ccc4c(ccc5nc([C@@H]6C[C@H]7C[C@H]7N6C(=O)[C@@H](NC(=O)OC)C(C)C)[nH]c54)c3)cc2)[nH]1)C(C)C` [Compound 18]: the EC50 was found to be 6 nM in experiment [1], 0.2 nM in experiment [2] and 7 pM in the experiment with HCV GT 1a replicon.

Consider `COC(=O)N[C@H](C(=O)N1C[C@]2(CCCOC2)C[C@H]1c1ncc(-c2ccc(-c3ccc4c(ccc5nc([C@@H]6C[C@@H]7C[C@@H]7N6C(=O)[C@@H](NC(=O)OC)C(C)C)[nH]c54)c3)cc2)[nH]1)C(C)C` [Compound 20], for which the concentration giving a half-maximal response (EC50) in experiment [1] was found to be 18 nM; in experiment [2] it was 0.9 nM; in the experiment on HCV GT 1a replicon, 14 pM.

`COC(=O)N[C@H](C(=O)N1C[C@]2(CCCOC2)C[C@H]1c1nc2ccc3cc(-c4ccc5c(ccc6nc([C@@H]7C[C@@H]8C[C@@H]8N7C(=O)[C@@H](NC(=O)OC)C(C)C)[nH]c65)c4)ccc3c2[nH]1)C(C)C` [Compound 21]: the values for the EC50 (in experiment [1]; in experiment [2]; with HCV GT 1a replicon) were 4 nM, 0.2 nM and 20 pM, respectively.

As for `COC(=O)N[C@H](C(=O)N1C[C@]2(CCCOC2)C[C@H]1c1nc2ccc3cc(-c4ccc(-c5cnc([C@@H]6C[C@@H]7C[C@@H]7N6C(=O)[C@@H](NC(=O)OC)C(C)C)[nH]5)cc4)ccc3c2[nH]1)C(C)C` [Compound 22], the EC50 is 6 nM in experiment [1], 0.1 nM in experiment [2] and 9 pM in the experiment on HCV GT 1a replicon.

Take `COC(=O)N[C@H](C(=O)N1C[C@]2(CCCOC2)C[C@H]1c1nc2ccc3cc(-c4ccc5c(ccc6nc([C@@H]7C[C@@H]8CCCC[C@@H]8N7C(=O)[C@@H](NC(=O)OC)C(C)C)[nH]c65)c4)ccc3c2[nH]1)C(C)C` [Compound 23]: the values for the EC50 (in experiment [1]; in experiment [2]; in the experiment with HCV GT 1a replicon) were 1 nM, 0.02 nM and 12 pM, respectively.

Turning to `COC(=O)N[C@H](C(=O)N1C[C@]2(CCCOC2)C[C@H]1c1nc2ccc3cc(-c4ccc(-c5cnc([C@@H]6C[C@@H]7CCCC[C@@H]7N6C(=O)[C@@H](NC(=O)OC)C(C)C)[nH]5)cc4)ccc3c2[nH]1)C(C)C` [Compound 24], the concentration for a half-maximal effect (EC50) stood at 3 nM in experiment [1], 0.02 nM in experiment [2] and 7 pM in the experiment with HCV GT 1a replicon.

As for `COC(=O)N[C@H](C(=O)N1CCC[C@H]1c1nc2c([nH]1)-c1ccc(-c3ccc4c(ccc5nc([C@@H]6C[C@@]7(CCCOC7)CN6C(=O)[C@@H](NC(=O)OC)C(C)C)[nH]c54)c3)cc1OC2)C(C)C` [Compound 25], the EC50 in experiment [1] is 7 nM; in experiment [2], 0.5 nM; in the experiment on HCV GT 1a replicon it was 27 pM.

Source of the values: patent publication US10407445B2, “Hepatitis C virus inhibitors” (ENANTA PHARMACEUTICALS, INC., priority 2013, dated 2019).
